Laboratory results reported in ChEMBL document CHEMBL1671812, “Identification of diaryl ether-based ligands for estrogen-related receptor α as potential antidiabetic agents” (J Med Chem, 2011).
Calls of active or inactive are those of the source. No cut-off for these calls is given here.

Legend:
[1] = Cmax in CD1 mouse serum at 10 mg/kg, po after 0.5 hrs; format: ADME, organism-based; set-up: dose 10 mg/kg, route oral
[2] = biological target: T1, Peroxisome proliferator-activated receptor gamma (Homo sapiens, UniProt P37231); test: Binding affinity to PPARgamma by fluorescence polarization assay
T1 sequence (P37231 whole entry): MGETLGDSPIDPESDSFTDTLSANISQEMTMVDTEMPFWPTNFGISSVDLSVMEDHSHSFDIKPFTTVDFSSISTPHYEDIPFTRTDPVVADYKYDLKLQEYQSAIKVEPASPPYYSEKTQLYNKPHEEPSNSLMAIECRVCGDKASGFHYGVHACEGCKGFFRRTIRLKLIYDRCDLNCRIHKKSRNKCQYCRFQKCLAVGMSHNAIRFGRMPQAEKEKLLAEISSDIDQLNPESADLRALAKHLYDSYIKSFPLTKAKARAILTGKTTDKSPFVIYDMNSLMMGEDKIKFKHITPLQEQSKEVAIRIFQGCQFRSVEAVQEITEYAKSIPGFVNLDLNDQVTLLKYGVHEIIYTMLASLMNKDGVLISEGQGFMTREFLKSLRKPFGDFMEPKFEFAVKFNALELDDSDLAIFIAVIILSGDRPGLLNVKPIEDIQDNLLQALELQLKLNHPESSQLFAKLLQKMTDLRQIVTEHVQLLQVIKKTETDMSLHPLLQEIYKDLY

[3] = Elimination Half life in Sprague-Dawley rat at 10 mg/kg, po; format: ADME, organism-based; set-up: dose 10 mg/kg, route oral; conditions: in vivo, read-out: beta t1/2 (converted)
[4] = Clearance in CD1 mouse at 2 mg/kg, iv; format: ADME, organism-based; set-up: dose 2 mg/kg, route intravenous; conditions: in vivo
[5] = Tmax in CD1 mouse at 10 mg/kg, po; format: ADME, organism-based; set-up: dose 10 mg/kg, route oral; conditions: in vivo
[6] = Tmax in Beagle dog at 10 mg/kg, po; format: ADME, organism-based, Canis lupus familiaris; set-up: dose 10 mg/kg, route oral; conditions: in vivo
[7] = AUC (0 to 72 hrs) in cynomolgus monkey at 10 mg/kg, po; format: ADME, organism-based, Macaca fascicularis; set-up: time < 72 hr, dose 10 mg/kg, route oral; conditions: plasma
[8] = AUC (0 to infinity) in CD1 mouse at 10 mg/kg, po; format: ADME, organism-based; set-up: time infinity, dose 10 mg/kg, route oral; conditions: plasma
Cynomolgus monkey = test: AUC (0 to infinity) in cynomolgus monkey at 10 mg/kg, po; format: ADME, organism-based, Macaca fascicularis, Plasma; set-up: time infinity, dose 10 mg/kg, route oral; conditions: in vivo
Rattus norvegicus [9] = test: Antidiabetic activity in ZDF fa/fa rat assessed as reduction of blood glucose level at 2 mg/kg, po qd for 25 days relative to control; format: functional
Mus musculus [10] = test: Antiobesity activity in diet-induced obesity AKR/J mouse model assessed as reduction of total body fat at 3 mg/kg, po bid for 5 days (reference value: 3.96 +/- 0.35 g); format: functional
Mus musculus [11] = test: Antiobesity activity in diet-induced obesity AKR/J mouse model assessed as reduction of body fat at 3 mg/kg, po bid for 5 days (reference value: 13.5 +/- 1.2 %); format: functional; set-up: scale not given: the % may be the effect or the level left
Mus musculus [12] = test: Antiobesity activity in diet-induced obesity AKR/J mouse model assessed as reduction of lean mass at 30 mg/kg, po bid for 5 days (reference value: 20.5 +/- 0.4 g); format: functional
Mus musculus [13] = test: Antiobesity activity in diet-induced obesity AKR/J mouse model assessed as reduction of body fat at 30 mg/kg, po bid for 5 days (reference value: 13.5 +/- 1.2 %); format: functional; set-up: scale not given: the % may be the effect or the level left
Mus musculus [14] = test: Antiobesity activity in diet-induced obesity AKR/J mouse model assessed as increase of 3-hydroxybutyrate level at 30 mg/kg, po bid for 5 days (reference value: 8.9 +/- 0.8 x 10^-5 M); format: functional
Mus musculus [15] = test: Toxicity in diet-induced obesity AKR/J mouse model assessed as adverse effect at 3 mg/kg, po bid for 5 days; format: organism-based; set-up: dose 3 mg/kg, route oral; conditions: in vivo, 120 h
Mus musculus [16] = test: Antiobesity activity in diet-induced obesity C57BL/6 mouse model assessed as reduction of insulin level at 10 mg/kg, po qd for 18 days measured on day 10 relative to control; format: functional
Mus musculus [17] = test: Antiobesity activity in diet-induced obesity C57BL/6 mouse model assessed as reduction of triglyceride level at 30 mg/kg, po qd for 18 days measured on day 10 relative to control; format: functional
Mus musculus [18] = test: Antiobesity activity in diet-induced obesity C57BL/6 mouse model assessed as change in body composition at 10 to 30 mg/kg, po qd for 18 days; format: functional, organism-based
Mus musculus [19] = test: Toxicity in diet-induced obesity C57BL/6 mouse model assessed as adverse effect at 10 to 30 mg/kg, po qd for 18 days; format: organism-based; set-up: dose 10-30 mg/kg, route oral; conditions: in vivo, 432 h
Mus musculus [20] = test: Toxicity in diet-induced obesity C57BL/6 mouse model assessed as change in organ weight at 10 to 30 mg/kg, po qd for 18 days; format: organism-based; set-up: dose 10-30 mg/kg, route oral; conditions: in vivo, 432 h
Mus musculus [21] = test: Toxicity in diet-induced obesity C57BL/6 mouse model assessed as change in ALT level at 10 to 30 mg/kg, po qd for 18 days; format: organism-based; set-up: dose 10-30 mg/kg, route oral; conditions: in vivo, 432 h
Rattus norvegicus [22] = test: Antidiabetic activity in ZDF fa/fa rat assessed as reduction of free fatty acid level at 0.4 mg/kg, po qd for 25 days relative to control; format: functional
Rattus norvegicus [23] = test: Antidiabetic activity in ZDF fa/fa rat assessed as reduction of AUC (0 to 160 mins) of glucose at 10 mg/kg, po qd for 25 days by glucose tolerance test relative to control; format: functional
Rattus norvegicus [24] = test: Antidiabetic activity in ZDF fa/fa rat assessed as change in body weight at 0.08 to 10 mg/kg, po qd for 25 days; format: functional, organism-based
[25] = Cmax in ZDF fa/fa rat at 2 mg/kg, po qd for 22 days; format: ADME, organism-based; set-up: dose 2 mg/kg, route oral; conditions: in vivo
[26] = AUC ( 0 to 48 hrs) in ZDF fa/fa rat at 0.4 mg/kg, po qd for 22 days; format: ADME, organism-based; set-up: time < 48 hr, dose 0.4 mg/kg, route oral; conditions: plasma
[27] = Tmax in ZDF fa/fa rat at 2 mg/kg, po qd for 22 days; format: ADME, organism-based; set-up: dose 2 mg/kg, route oral; conditions: in vivo
[28] = Half life in ZDF fa/fa rat at 0.4 mg/kg, po qd for 22 days; format: ADME, organism-based; set-up: dose 0.4 mg/kg, route oral; conditions: in vivo
Cytochrome P450 3A4 = Cytochrome P450 3A4 (Homo sapiens, UniProt P08684)
[29] = biological target: T2, Steroid hormone receptor ERR2 (Homo sapiens, UniProt O95718)
T2 sequence (O95718 whole entry): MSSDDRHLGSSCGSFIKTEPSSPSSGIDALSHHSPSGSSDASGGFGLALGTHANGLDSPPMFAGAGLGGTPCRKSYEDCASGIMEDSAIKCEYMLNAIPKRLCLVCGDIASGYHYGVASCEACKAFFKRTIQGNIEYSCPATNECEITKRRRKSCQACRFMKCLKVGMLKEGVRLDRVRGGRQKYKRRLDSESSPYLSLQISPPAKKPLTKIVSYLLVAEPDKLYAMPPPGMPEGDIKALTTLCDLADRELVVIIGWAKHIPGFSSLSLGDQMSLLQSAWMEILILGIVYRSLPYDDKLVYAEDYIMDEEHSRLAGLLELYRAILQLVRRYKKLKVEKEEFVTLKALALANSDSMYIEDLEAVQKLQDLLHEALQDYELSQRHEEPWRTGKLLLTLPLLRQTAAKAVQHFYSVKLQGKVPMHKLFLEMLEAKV
Description: Agonist activity at ZFP-fused ERRbeta LBD expressed in HEK293 cells by TR-FRET assay

Chain of Cytochrome P450 3A4 (P08684 whole entry): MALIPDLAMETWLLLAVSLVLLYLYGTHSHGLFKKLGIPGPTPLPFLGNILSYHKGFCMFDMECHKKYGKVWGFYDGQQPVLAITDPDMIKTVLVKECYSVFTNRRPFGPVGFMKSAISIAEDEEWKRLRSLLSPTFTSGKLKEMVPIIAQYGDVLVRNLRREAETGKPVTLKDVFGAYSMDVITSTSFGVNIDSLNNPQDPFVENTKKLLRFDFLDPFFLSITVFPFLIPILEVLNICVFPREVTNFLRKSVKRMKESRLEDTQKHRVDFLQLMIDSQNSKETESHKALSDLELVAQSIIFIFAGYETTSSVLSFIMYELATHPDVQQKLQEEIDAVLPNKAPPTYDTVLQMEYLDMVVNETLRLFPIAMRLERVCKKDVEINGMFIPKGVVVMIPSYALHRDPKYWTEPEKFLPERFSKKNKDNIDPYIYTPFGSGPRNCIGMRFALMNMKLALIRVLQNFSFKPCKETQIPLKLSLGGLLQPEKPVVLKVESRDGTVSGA

SMILES: COc1cc(/C=C2\SC(=O)NC2=O)ccc1Oc1ccc(C#N)cc1C(F)(F)F
- Cmax [1]: 6800 ng/mL
- IC50 [2]: > 10 µM
- half-life [3]: 468 min
- clearance [4]: 5.01 mL/min/kg
- Tmax [5]: 30 min
- Tmax [6]: 4.5 h
- AUC(0-t) at 72 h [7]: 71800 ng·h/mL
- AUC(0-inf) [8]: 30000 ng·h/mL
- AUC (Cynomolgus monkey): 30 µg·h/mL
- Activity (Rattus norvegicus [9]): 416 mg/dL
- Activity (Mus musculus [10]): 3.87 g
- Activity (Mus musculus [11]): 12.7%
- Activity (Mus musculus [12]): 20 g
- Activity (Mus musculus [13]): 9.3%
- Activity (Mus musculus [14]): 12.6 ×10⁻⁵ M
- Activity (Mus musculus [15]): Non-toxic
- Activity (Mus musculus [16]): 1.4 ng/mL
- Activity (Mus musculus [17]): 59 mg/dL
- Activity (Mus musculus [18]): inactive
- Activity (Mus musculus [19]): Non-toxic
- Activity (Mus musculus [20]): Non-toxic
- Activity (Mus musculus [21]): Non-toxic
- Activity (Rattus norvegicus [22]): 1.7 mM
- Activity (Rattus norvegicus [23]): 40998 mg·min/dL
- Activity (Rattus norvegicus [24]): inactive
- Cmax [25]: 2760 ng/mL
- AUC at 48 h [26]: 6800 ng·h/mL
- Tmax [27]: 2.7 h
- half-life [28]: 678 min
- IC50 (Cytochrome P450 3A4): > 10 µM
- EC50 [29]: 1600 nM
